# Reference: US11014934B2, “Antiseptic drug” (AO “TATKHIMFARMPREPARATY”, priority 2017, dated 2021)
# Like-named read-outs stand apart in the source and are kept apart here.
# Columns and labels:
# Assay in all cases: MIC, serial dilutions in Müller-Hinton broth
# Format in all cases: cell-based
# [1] = test system: Kl. pneumoniae 1781
# Summary of the method: (§1)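 Broth microdilution in Müller-Hinton broth following MUK 4.2.1890-04, with two-fold compound dilutions at final 1-128 ug/ml. The inoculum was set to 0.5 McFarland and diluted to 10^7 CFU/ml before addition, then plates were incubated at 37° C. for 24 hours. MIC was the lowest concentration without visible growth, taking the highest of three independent runs.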
# [2] = test system: E. faecium 28
# Summary of the method: as §1
# [3] = test system: E. faecium 25
# Summary of the method: as §1
# [4] = test system: Acinetobacter spp. 4
# Summary of the method: as §1
# [5] = test system: E. faecalis 23
# Summary of the method: as §1
# [6] = test system: Moraxella sp.834
# Summary of the method: as §1
# [7] = test system: S. aureus 1134 MRSA
# Summary of the method: as §1
# [8] = test system: Kl. pneumoniae
# Summary of the method: as §1
# [9] = test system: Pseudomonas spp. 5
# Summary of the method: as §1
# [10] = test system: Klebsiella spp. 11
# Summary of the method: as §1
# [11] = test system: Enterobacter spp. 16
# Summary of the method: as §1
# [12] = test system: E. faecalis 3060
# Summary of the method: as §1
# [13] = test system: S. aureus 1173 MRSA
# Summary of the method: as §1
# [14] = test system: E. faecium 3028
# Summary of the method: as §1
# [15] = test system: E. faecalis 26
# Summary of the method: as §1
# [16] = test system: Klebsiella spp. 12
# Summary of the method: as §1
# [17] = test system: Ps. aeruginosa ATTC 27853
# Summary of the method: as §1
# [18] = test system: Ps. aeruginosa 1202
# Summary of the method: as §1
# [19] = test system: Moraxella sp. 723
# Summary of the method: as §1
# [20] = test system: E. coli CDCF-50
# Summary of the method: as §1
# [21] = test system: S. aureus 983 MRSA
# Summary of the method: as §1
# [22] = test system: S. aureus 1065 MRSA
# Summary of the method: as §1
compound,measurement,setting,value
"CCCCCCCCCCCCCC(=O)NCCC[N+](C)(C)Cc1ccccc1.O.[Cl-] [Miramistin, benzyldimethyl [3-(myristoylamino)propyl]-ammonium chloride monohydrate]",MIC,"[1]; Klebsiella pneumoniae, 1781",64 µg/mL
same,MIC,"[2]; Enterococcus faecium, 28",32 µg/mL
same,MIC,"[3]; Enterococcus faecium, 25",< 0.5 µg/mL
same,MIC,"[4]; Acinetobacter, SPP.4",> 64 µg/mL
same,MIC,"[5]; Enterococcus faecalis, 23",4 µg/mL
same,MIC,"[6]; Moraxella, SP.834",32 µg/mL
same,MIC,"[7]; Staphylococcus aureus, MRSA",8 µg/mL
same,MIC,[8]; Klebsiella pneumoniae,> 64 µg/mL
same,MIC,"[9]; Pseudomonas, SPP.5",> 64 µg/mL
same,MIC,"[10]; Klebsiella, SPP.11",64 µg/mL
same,MIC,"[11]; Enterobacter, SPP.16",64 µg/mL
same,MIC,"[12]; Enterococcus faecalis, 3060",8 µg/mL
same,MIC,"[13]; Staphylococcus aureus, MRSA",16 µg/mL
same,MIC,"[14]; Enterococcus faecium, 3028",16 µg/mL
same,MIC,"[15]; Enterococcus faecalis, 26",4 µg/mL
same,MIC,"[16]; Klebsiella, SPP.12",> 64 µg/mL
same,MIC,"[17]; Pseudomonas aeruginosa, ATTC27853",> 64 µg/mL
same,MIC,"[18]; Pseudomonas aeruginosa, 1202",> 64 µg/mL
same,MIC,"[19]; Moraxella, SP.723",32 µg/mL
same,MIC,"[20]; Escherichia coli, CDCF50",64 µg/mL
same,MIC,"[21]; Staphylococcus aureus, MRSA",4 µg/mL
same,MIC,"[22]; Staphylococcus aureus, MRSA",8 µg/mL
alkyldimethyl(phenylmethyl) ammonium chloride [Benzalconium chloride],MIC,"[1]; Kl. pneumoniae 1781, inoculum 10^7 CFU/ml",16 µg/mL
same,MIC,"[2]; E. faecium 28, inoculum 10^7 CFU/ml",<0.5 µg/mL
same,MIC,"[3]; E. faecium 25, inoculum 10^7 CFU/ml",<0.5 µg/mL
same,MIC,"[4]; Acinetobacter spp. 4, inoculum 10^7 CFU/ml",4 µg/mL
same,MIC,"[5]; E. faecalis 23, inoculum 10^7 CFU/ml",<0.5 µg/mL
same,MIC,"[6]; Moraxella sp.834, inoculum 10^7 CFU/ml",2 µg/mL
same,MIC,"[7]; S. aureus 1134 MRSA, inoculum 10^7 CFU/ml",2 µg/mL
same,MIC,"[8]; Kl. pneumoniae, inoculum 10^7 CFU/ml",>64 µg/mL
same,MIC,"[9]; Pseudomonas spp. 5, inoculum 10^7 CFU/ml",32 µg/mL
same,MIC,"[10]; Klebsiella spp. 11, inoculum 10^7 CFU/ml",2 µg/mL
same,MIC,"[11]; Enterobacter spp. 16, inoculum 10^7 CFU/ml",4 µg/mL
same,MIC,"[12]; E. faecalis 3060, inoculum 10^7 CFU/ml",4 µg/mL
same,MIC,"[13]; S. aureus 1173 MRSA, inoculum 10^7 CFU/ml",8 µg/mL
same,MIC,"[14]; E. faecium 3028, inoculum 10^7 CFU/ml",4 µg/mL
same,MIC,"[15]; E. faecalis 26, inoculum 10^7 CFU/ml",0.5 µg/mL
same,MIC,"[16]; Klebsiella spp. 12, inoculum 10^7 CFU/ml",2 µg/mL
same,MIC,"[17]; Ps. aeruginosa ATTC 27853, inoculum 10^7 CFU/ml",>64 µg/mL
same,MIC,"[18]; Ps. aeruginosa 1202, inoculum 10^7 CFU/ml",>64 µg/mL
same,MIC,"[19]; Moraxella sp. 723, inoculum 10^7 CFU/ml",4 µg/mL
same,MIC,"[20]; E. coli CDCF-50, inoculum 10^7 CFU/ml",4 µg/mL
same,MIC,"[21]; S. aureus 983 MRSA, inoculum 10^7 CFU/ml",4 µg/mL
same,MIC,"[22]; S. aureus 1065 MRSA, inoculum 10^7 CFU/ml",4 µg/mL
"CCCCCCCCCCCC[N+](C)(C)Cc1cnc(C[N+](C)(C)CCCCCCCCCCCC)c2c1COC(CC)O2 (stereo not drawn) [Compound I, 5,8-(Bis(methylene (N, N-dimethyl-N-dodecylammonium))-2-ethyl-4H-[1,3]dioxino [4,5-c]pyridiniumdichloride]",MIC,"[1]; Klebsiella pneumoniae, Kl. pneumoniae 1781, inoculum 10^7 CFU/ml, read-out: MIC",2 µg/mL
same,MIC,"[2]; Enterococcus faecium, E. faecium 28, inoculum 10^7 CFU/ml, read-out: MIC",0.03 µg/mL
same,MIC,"[3]; Enterococcus faecium, E. faecium 25, inoculum 10^7 CFU/ml, read-out: MIC",0.03 µg/mL
same,MIC,"[4]; Acinetobacter spp. 4, inoculum 10^7 CFU/ml, read-out: MIC",8 µg/mL
same,MIC,"[5]; Enterococcus faecalis, E. faecalis 23, inoculum 10^7 CFU/ml, read-out: MIC",0.03 µg/mL
same,MIC,"[6]; Moraxella sp.834, inoculum 10^7 CFU/ml, read-out: MIC",4 µg/mL
same,MIC,"[7]; Staphylococcus aureus, S. aureus 1134 MRSA, inoculum 10^7 CFU/ml, read-out: MIC",2 µg/mL
same,MIC,"[8]; Klebsiella pneumoniae, Kl. pneumoniae, inoculum 10^7 CFU/ml, read-out: MIC",2 µg/mL
same,MIC,"[9]; Pseudomonas spp. 5, inoculum 10^7 CFU/ml, read-out: MIC",8 µg/mL
same,MIC,"[10]; Klebsiella spp. 11, inoculum 10^7 CFU/ml, read-out: MIC",16 µg/mL
same,MIC,"[11]; Enterobacter spp. 16, inoculum 10^7 CFU/ml, read-out: MIC",8 µg/mL
same,MIC,"[12]; Enterococcus faecalis, E. faecalis 3060, inoculum 10^7 CFU/ml, read-out: MIC",1 µg/mL
same,MIC,"[13]; Staphylococcus aureus, S. aureus 1173 MRSA, inoculum 10^7 CFU/ml, read-out: MIC",2 µg/mL
same,MIC,"[14]; Enterococcus faecium, E. faecium 3028, inoculum 10^7 CFU/ml, read-out: MIC",1 µg/mL
same,MIC,"[15]; Enterococcus faecalis, E. faecalis 26, inoculum 10^7 CFU/ml, read-out: MIC",1 µg/mL
same,MIC,"[16]; Klebsiella spp. 12, inoculum 10^7 CFU/ml, read-out: MIC",16 µg/mL
same,MIC,"[17]; Pseudomonas aeruginosa, ATTC27853, Ps. aeruginosa ATTC 27853, inoculum 10^7 CFU/ml, read-out: MIC",4 µg/mL
same,MIC,"[18]; Pseudomonas aeruginosa, Ps. aeruginosa 1202, inoculum 10^7 CFU/ml, read-out: MIC",32 µg/mL
same,MIC,"[19]; Moraxella sp. 723, inoculum 10^7 CFU/ml, read-out: MIC",4 µg/mL
same,MIC,"[20]; Escherichia coli, CDCF50, E. coli CDCF-50, inoculum 10^7 CFU/ml, read-out: MIC",8 µg/mL
same,MIC,"[21]; Staphylococcus aureus, S. aureus 983 MRSA, inoculum 10^7 CFU/ml, read-out: MIC",8 µg/mL
same,MIC,"[22]; Staphylococcus aureus, S. aureus 1065 MRSA, inoculum 10^7 CFU/ml, read-out: MIC",2 µg/mL
